The values below come from patent US20020122768A1, “Stable radiopharmaceutical compositions and methods for preparation thereof” (priority 2000, published 2002).

Holding throughout (assay type): physicochemical
The nature of data set [1]: Solution stability of ^177Lu-C at −78° C., RCP by radio-HPLC. Particulars: ^177Lu-C prepared using 2 mg GA, degassed, second stabilizer (20 mg AA, 20 mg DSA, 10 mg 2,3,4-THBA, 10 mg 3,4,5-THBA) added post-labeling.
Assay in data set [2]: as above
Particulars: for RCP (%) t = 0 / RCP (%) t = 3 days / RCP (%) t = 7 days / RCP (%) change: ^177Lu-C prepared using 2 mg GA; for RCP (%) t = 0 / RCP (%) t = 3 days / RCP (%) t = 7 days: degassed, second stabilizer (20 mg AA, 20 mg DSA, 10 mg 2,3,4-THBA, 10 mg 3,4,5-THBA) added post-labeling; for RCP (%) change: second stabilizer added post-labeling, t = 0 to 7 days; for stabilization compared with AA and DSA: ^177Lu-C, second stabilizer. How it is done: The integrity of a radiopharmaceutical is measured by the radiochemical purity (RCP) of the radiolabeled compound using ITLC or more preferably HPLC. The advantage of using HPLC is that radio-impurities caused by radiolytic degradation can be separated from the radiopharmaceutical under optimized chromatographic conditions. […] The radiopharmaceutical compositions of this invention are effective in maintaining the long-term stability of samples that have been frozen, thawed, and re-tested periodically for 7 days.
The initial RCP of a radiopharmaceutical is largely dependent on radiolabeling conditions such as pH, heating temperature and time. Once a radiopharmaceutical is prepared in high yield, the stability of the radiopharmaceutical composition is measured by the` RCP change of the radiopharmaceutical over a certain period of time. For comparison purposes, sodium gentisate or sodium ascorbate was often used as the reference since they have been used in various radiopharmaceutical formulations.
HPLC method 3 used a HP-1100 HPLC system with a UV/visible detector (λ=220 nm), an IN-US radio-detector, and a Zorbax C18 column (4.6 mm×250 mm, 80 Å pore size). The flow rate was 1 mL/min with a gradient mobile phase starting from 90% solvent A (0.025 M ammonium acetate buffer, pH 6.8) and 10% solvent B (acetonitrile) at 0 min to 88% solvent A and 12% solvent B at 18 min, followed by an isocratic wash using 40% of solvent A and 60% solvent B from 19 to 25 min.
The ITLC method used Gelman Sciences silica-gel ITLC paper strips and 1:1 mixture of acetone and saline as eluant. By this method, the radiolabeled compounds migrate to the solvent front while [^90Y]/^177Lu]colloid and [^90Y]/^177Lu]acetate remain at the origin.
(§1) The 0.5 M ammonium acetate buffer (pH 8.0) was first degassed under vacuum for 1-2 min. COMPOUND C and gentisic acid (sodium salt, GA) were dissolved in the degassed buffer to give a concentration of 100 μg/mL for COMPOUND C and 2 mg/mL for GA. The resulting solution was immediately degassed under vacuum for another 1-2 min. To a clean sealed 5 mL vial was added 1.0 mL of the degassed 0.5 M ammonium acetate buffer (pH 8.0) containing 100 μg COMPOUND C and 2 mg GA. The solution was degassed again under vacuum. Upon addition of ˜20 μL of ^177LuCl3 solution (˜20 mCi) in 0.05 N HCl, the reaction mixture was heated at 100° C. for 5 min. After cooling to room temperature, a sample of the resulting solution was analyzed by HPLC (Method 3, injection volume=5 μL) and ITLC. […] To the solution above was added 0.5 mL of sodium ascorbate solution (40 mg/mL in 0.5 M ammonium acetate buffer, pH=7.4). The resulting mixture was then kept in a dry-ice box (−78° C.) for 7 days. Samples were analyzed at t=0, 3 and 7 days.
as §1, with “COMPOUND” for “The 0.5 M ammonium acetate buffer (pH 8.0) was first degassed under vacuum for 1-2 min. COMPOUND”, “1.0 μL” for “1.0 mL”, “of 2,3,4-THBA” for “of sodium ascorbate”, “solution (20” for “solution (40”
COMPOUND C and gentisic acid (sodium salt, GA) were dissolved in the degassed buffer to give a concentration of 100 μg/mL for COMPOUND C and 2 mg/mL for GA. The resulting solution was immediately degassed under vacuum for another 1-2 min. […]

Data set [3] in a line: Solution stability of ^90Y-A at room temperature, RCP by radio-HPLC. Particulars: for RCP (%) change: ^90Y-A, t = 0 h to last time point. On the procedure: The advantage of using HPLC is that radio-impurities caused by radiolytic degradation can be separated from the radiopharmaceutical under optimized chromatographic conditions.
The initial RCP of a radiopharmaceutical is largely dependent on radiolabeling conditions such as pH, heating temperature and time. Once a radiopharmaceutical is prepared in high yield, the stability of the radiopharmaceutical composition is measured by the` RCP change of the radiopharmaceutical over a certain period of time.
Analytical Methods. HPLC method 1 used a HP-1100 HPLC system with a UV/visible detector (λ=220 nm), an IN-US radio-detector, and a Zorbax C18 column (4.6 mm×250 mm, 80 Å pore size).
The ITLC method used Gelman Sciences silica-gel ITLC paper strips and 1:1 mixture of acetone and saline as eluant.
(§2) The reaction mixture was heated at 100° C. for 10 min. A sample of the resulting solution was first diluted 20-fold with 2 mM DTPA solution (pH=5), and was then analyzed by HPLC (Method 1, injection volume=1-2 μL) and ITLC. […] The resulting solution was kept at room temperature for 6 days.
as §2, §2
The reaction mixture was heated at 100° C. for 10 min. A sample of the resulting solution was first diluted 20-fold with 2 mM DTPA solution (pH=5), and was then analyzed by HPLC (Method 1, injection volume 1-2 μL) and ITLC. […] The resulting solution was kept at room temperature for 7 days.
(§3) The reaction mixture was heated at 100° C. for 10 min. A sample of the resulting solution was first diluted 20-fold with 2 mM DTPA solution (pH=5), and was then analyzed by HPLC (Method 1, injection volume=1-2 μL) and ITLC. […] The resulting solution was kept at room temperature for 7 days.
as §3, §3

The mark [4] stands for this setting: ^90Y-A (~20 mCi), 10 mg stabilizer, room temperature.
Where [5] appears, read: 10 mg stabilizer, room temperature.
Setting [6] is: ^90Y-A (~20 mCi), 2 mg stabilizer, room temperature.

Take 2,4-disulfonatobenzeneamine [DSA]: the “RCP (%) t = 1 day” value in data set [1] is recorded as 97.4%. Besides, in data set [2], the “RCP (%) t = 0” value amounted to 97.4%, the “RCP (%) t = 3 days” value was found to be 95.9%, the “RCP (%) t = 7 days” value was found to be 93.0% and the “RCP (%) change” value is listed as 4.4%. Also, in data set [3] (setting [4]), the “RCP (%) t = 0 h” value was 92.2%, the “RCP (%) t = 24 h” value was found to be 89.3%, the “RCP (%) t = 72 h” value amounted to 82.8% and the “RCP (%) t = 148 h” value stood at 80.5%. Further, the “RCP (%) change” value in data set [3] (setting [5]) is 11.7%.

Consider `O=C(O)c1ccc(O)c(O)c1O` [2,3,4-THBA, 2,3,4-trihydroxybenzoic acid], for which the “RCP (%) t = 1 day” value in data set [1] is listed as 96.6%. Moreover, in data set [2], the “RCP (%) t = 0” value is on record as 97.4%, the “RCP (%) t = 3 days” value is recorded as 96.5%, the “RCP (%) t = 7 days” value stood at 95.4% and the “RCP (%) change” value turned out to be 2.0%. Moreover, the “stabilization compared with AA and DSA” value in data set [2] was “better stabilization”.

With `O=C(O)c1cc(O)c(O)c(O)c1` [3,4,5-THBA, 3,4,5-trihydroxybenzoic acid], the “RCP (%) t = 1 day” value in data set [1] amounted to 97.9%. In data set [2], the “RCP (%) t = 0” value is 97.2%, the “RCP (%) t = 3 days” value stood at 96.7%, the “RCP (%) t = 7 days” value stood at 95.0% and the “RCP (%) change” value turned out to be 2.2%. Further, the “stabilization compared with AA and DSA” value in data set [2] was “better stabilization”. Moreover, in data set [3] (setting [6]), the “RCP (%) t = 0 h” value was determined as 95.3%, the “RCP (%) t = 24 h” value was 89.3%, the “RCP (%) t = 48 h” value was determined as 80.6% and the “RCP (%) t = 120 h” value is listed as 74.3%. In data set [3] (setting [6]), the “RCP (%) t = 144 h” value was 73.4%. Moreover, in data set [3] (setting [4]), the “RCP (%) t = 0 h” value came to 93.3%, the “RCP (%) t = 24 h” value came to 92.4%, the “RCP (%) t = 72 h” value is listed as 88% and the “RCP (%) t = 148 h” value was determined as 79.5%. In addition, in data set [3] (^90Y-A at room temperature, 2 mg stabilizer), the “stabilization compared with GA” value is “better stabilizers than GA”. The “RCP (%) change” value in data set [3] (setting [5]) stood at 13.8%.
